From article PMC7156458, “Synthetic biology based construction of biological activity-related library of fungal decalin-containing diterpenoid pyrones” (Nature Communications, 2020)

Target: Aβ42 (Homo sapiens, UniProt P05067)
Experiment: Th-T (thioflavin-T) assay of Aβ42 aggregation
Type: biochemical
Conditions: for Th-T fluorescence, mean of three wells: Aβ42 aggregation time course

Aβ42, sequence (P05067 672-713): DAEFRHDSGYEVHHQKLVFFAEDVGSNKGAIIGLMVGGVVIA

C=C1CC[C@@H]2[C@](C)(CC[C@H]3O[C@H](C=C(C)C)C[C@@]23C)[C@@H]1Cc1c(OC)oc(CO)c(C(=O)OC)c1=O [Compound 21]
first Th-T assay result (Aβ42 (10 μM) ± DPPs (20 μM), room temperature): clearly delayed nuclei formation of Aβ42
Th-T fluorescence, mean of three wells (reading M117): 1.039
Th-T fluorescence, mean of three wells (reading M118): 1.038
Th-T fluorescence, mean of three wells (reading M119): 1.047
Th-T fluorescence, mean of three wells (reading M120): 1.046
Th-T fluorescence, mean of three wells (reading M121): 1.028
Th-T fluorescence, mean of three wells (reading M122): 1.042
Th-T fluorescence, mean of three wells (reading M123): 1.04
Th-T fluorescence, mean of three wells (reading M124): 1.043
Th-T fluorescence, mean of three wells (reading M125): 1.031
Th-T fluorescence, mean of three wells (reading M126): 1.048
Th-T fluorescence, mean of three wells (reading M127): 1.027
Th-T fluorescence, mean of three wells (reading M128): 1.04
Th-T fluorescence, mean of three wells (reading M129): 1.041
Th-T fluorescence, mean of three wells (reading M130): 1.048
nucleation phase of Aβ42 delayed until (Th-T fluorescence of Aβ42 alone began to increase after 4 h): 13 h
Th-T fluorescence, mean of three wells (Fig. 7a) (column suffix _10, measurement M19): 0.2262
Th-T fluorescence, mean of three wells (Fig. 7a) (column suffix _10, measurement M20): 0.2276
Th-T fluorescence, mean of three wells (Fig. 7a) (column suffix _10, measurement M21): 0.2311
Th-T fluorescence, mean of three wells (Fig. 7a) (column suffix _10, measurement M22): 0.2318
Th-T fluorescence, mean of three wells (Fig. 7a) (column suffix _10, measurement M23): 0.2319
Th-T fluorescence, mean of three wells (Fig. 7a) (column suffix _10, measurement M24): 0.2323
Th-T fluorescence, mean of three wells (Fig. 7a) (column suffix _10, measurement M25): 0.2332
Th-T fluorescence, mean of three wells (Fig. 7a) (column suffix _10, measurement M26): 0.2371
Th-T fluorescence, mean of three wells (Fig. 7a) (column suffix _10, measurement M27): 0.238
Th-T fluorescence, mean of three wells (Fig. 7a) (column suffix _10, measurement M28): 0.2386
Th-T fluorescence, mean of three wells (Fig. 7a) (column suffix _10, measurement M29): 0.2373
Th-T fluorescence, mean of three wells (Fig. 7a) (column suffix _10, measurement M30): 0.2428
Th-T assay signal, mean of three wells (Fig. 7a) (column suffix _10, reading M1): 0.2407
Th-T assay signal, mean of three wells (Fig. 7a) (column suffix _10, reading M2): 0.2463
Th-T assay signal, mean of three wells (Fig. 7a) (column suffix _10, reading M3): 0.2449
Th-T assay signal, mean of three wells (Fig. 7a) (column suffix _10, reading M4): 0.2384
Th-T assay signal, mean of three wells (Fig. 7a) (column suffix _10, reading M5): 0.2363
Th-T assay signal, mean of three wells (Fig. 7a) (column suffix _10, reading M6): 0.2279
Th-T assay signal, mean of three wells (Fig. 7a) (column suffix _10, reading M7): 0.2237
Th-T assay signal, mean of three wells (Fig. 7a) (column suffix _10, reading M8): 0.2225
Th-T assay signal, mean of three wells (Fig. 7a) (column suffix _10, reading M9): 0.2211
Th-T assay signal, mean of three wells (Fig. 7a) (column suffix _10, reading M10): 0.2184
Th-T assay signal, mean of three wells (Fig. 7a) (column suffix _10, reading M11): 0.2174
Th-T assay signal, mean of three wells (Fig. 7a) (column suffix _10, reading M12): 0.2206
Th-T assay signal, mean of three wells (Fig. 7a) (column suffix _10, reading M13): 0.2193
Th-T assay signal, mean of three wells (Fig. 7a) (column suffix _10, reading M14): 0.2201
Th-T assay signal, mean of three wells (Fig. 7a) (column suffix _10, reading M15): 0.222
Th-T assay signal, mean of three wells (Fig. 7a) (column suffix _10, reading M16): 0.2237
Th-T assay signal, mean of three wells (Fig. 7a) (column suffix _10, reading M17): 0.228
Th-T assay signal, mean of three wells (Fig. 7a) (column suffix _10, reading M18): 0.2253
Fig. 7a Th-T reading, mean of three wells (column suffix _10, reading M85): 1.478
Fig. 7a Th-T reading, mean of three wells (column suffix _10, reading M86): 1.509
Fig. 7a Th-T reading, mean of three wells (column suffix _10, reading M87): 1.557
Fig. 7a Th-T reading, mean of three wells (column suffix _10, reading M88): 1.549
Fig. 7a Th-T reading, mean of three wells (column suffix _10, reading M89): 1.5658
Fig. 7a Th-T reading, mean of three wells (column suffix _10, reading M90): 1.591
Fig. 7a Th-T reading, mean of three wells (column suffix _10, reading M91): 1.5663
Fig. 7a Th-T reading, mean of three wells (column suffix _10, reading M92): 1.592
Fig. 7a Th-T reading, mean of three wells (column suffix _10, reading M93): 1.631
Fig. 7a Th-T reading, mean of three wells (column suffix _10, reading M94): 1.598
Fig. 7a Th-T reading, mean of three wells (column suffix _10, reading M95): 1.661
Fig. 7a Th-T reading, mean of three wells (column suffix _10, reading M96): 1.586
Fig. 7a Th-T reading, mean of three wells (column suffix _10, reading M97): 1.595
Fig. 7a Th-T reading, mean of three wells (column suffix _10, reading M98): 1.638
Fig. 7a Th-T reading, mean of three wells (column suffix _10, reading M99): 1.631
Fig. 7a Th-T reading, mean of three wells (column suffix _10, reading M100): 1.623
Fig. 7a Th-T reading, mean of three wells (column suffix _10, reading M101): 1.644
Fig. 7a Th-T reading, mean of three wells (column suffix _10, reading M102): 1.607
Fig. 7a Th-T reading, mean of three wells (column suffix _10, reading M103): 1.621
Fig. 7a Th-T reading, mean of three wells (column suffix _10, reading M104): 1.621
Fig. 7a Th-T reading, mean of three wells (column suffix _10, reading M105): 1.667
Fig. 7a Th-T reading, mean of three wells (column suffix _10, reading M106): 1.671
Th-T fluorescence, mean of three wells (Fig. 7a) (column suffix _20, measurement M19): 0.1942
Th-T fluorescence, mean of three wells (Fig. 7a) (column suffix _20, measurement M20): 0.198
Th-T fluorescence, mean of three wells (Fig. 7a) (column suffix _20, measurement M21): 0.1975
Th-T fluorescence, mean of three wells (Fig. 7a) (column suffix _20, measurement M22): 0.1979
Th-T fluorescence, mean of three wells (Fig. 7a) (column suffix _20, measurement M23): 0.1984
Th-T fluorescence, mean of three wells (Fig. 7a) (column suffix _20, measurement M24): 0.2012
Th-T fluorescence, mean of three wells (Fig. 7a) (column suffix _20, measurement M25): 0.2016
Th-T fluorescence, mean of three wells (Fig. 7a) (column suffix _20, measurement M26): 0.2021
Th-T fluorescence, mean of three wells (Fig. 7a) (column suffix _20, measurement M27): 0.2014
Th-T fluorescence, mean of three wells (Fig. 7a) (column suffix _20, measurement M28): 0.2017
Th-T fluorescence, mean of three wells (Fig. 7a) (column suffix _20, measurement M29): 0.2027
Th-T assay signal, mean of three wells (Fig. 7a) (column suffix _20, reading M1): 0.2262
Th-T assay signal, mean of three wells (Fig. 7a) (column suffix _20, reading M2): 0.223
Th-T assay signal, mean of three wells (Fig. 7a) (column suffix _20, reading M3): 0.2155
Th-T assay signal, mean of three wells (Fig. 7a) (column suffix _20, reading M4): 0.2051
Th-T assay signal, mean of three wells (Fig. 7a) (column suffix _20, reading M5): 0.2019
Th-T assay signal, mean of three wells (Fig. 7a) (column suffix _20, reading M6): 0.1953
Th-T assay signal, mean of three wells (Fig. 7a) (column suffix _20, reading M7): 0.1945
Th-T assay signal, mean of three wells (Fig. 7a) (column suffix _20, reading M8): 0.1954
Th-T assay signal, mean of three wells (Fig. 7a) (column suffix _20, reading M9): 0.1943
Th-T assay signal, mean of three wells (Fig. 7a) (column suffix _20, reading M10): 0.1989
Th-T assay signal, mean of three wells (Fig. 7a) (column suffix _20, reading M11): 0.1963
Th-T assay signal, mean of three wells (Fig. 7a) (column suffix _20, reading M12): 0.198
Th-T assay signal, mean of three wells (Fig. 7a) (column suffix _20, reading M13): 0.1957
Th-T assay signal, mean of three wells (Fig. 7a) (column suffix _20, reading M14): 0.1953
Th-T assay signal, mean of three wells (Fig. 7a) (column suffix _20, reading M15): 0.1958
Th-T assay signal, mean of three wells (Fig. 7a) (column suffix _20, reading M16): 0.1968
Th-T assay signal, mean of three wells (Fig. 7a) (column suffix _20, reading M17): 0.1967
Th-T assay signal, mean of three wells (Fig. 7a) (column suffix _20, reading M18): 0.1963
Fig. 7a Th-T reading, mean of three wells (column suffix _20, reading M85): 0.5666
Fig. 7a Th-T reading, mean of three wells (column suffix _20, reading M86): 0.5976
Fig. 7a Th-T reading, mean of three wells (column suffix _20, reading M87): 0.6445
Fig. 7a Th-T reading, mean of three wells (column suffix _20, reading M88): 0.6876
Fig. 7a Th-T reading, mean of three wells (column suffix _20, reading M89): 0.7312
Fig. 7a Th-T reading, mean of three wells (column suffix _20, reading M90): 0.7695
Fig. 7a Th-T reading, mean of three wells (column suffix _20, reading M91): 0.7994
Fig. 7a Th-T reading, mean of three wells (column suffix _20, reading M92): 0.8356
Fig. 7a Th-T reading, mean of three wells (column suffix _20, reading M93): 0.8329
Fig. 7a Th-T reading, mean of three wells (column suffix _20, reading M94): 0.8638
Fig. 7a Th-T reading, mean of three wells (column suffix _20, reading M95): 0.8786
Fig. 7a Th-T reading, mean of three wells (column suffix _20, reading M96): 0.9004
Fig. 7a Th-T reading, mean of three wells (column suffix _20, reading M97): 0.8843
Fig. 7a Th-T reading, mean of three wells (column suffix _20, reading M98): 0.903
Fig. 7a Th-T reading, mean of three wells (column suffix _20, reading M99): 0.9153
Fig. 7a Th-T reading, mean of three wells (column suffix _20, reading M100): 0.9048
